According to patent publication US6215002A, “Pyrrolopyrrolone derivatives as inhibitors of neutrophil elastase” (priority 1996, dated 2001):
pIC50: −log10 of the molar value. Structures can show the parent of a compound that is named as a salt.

Target: T1, human neutrophil elastase (Homo sapiens, UniProt P08246)
T1 sequence (P08246 30-267): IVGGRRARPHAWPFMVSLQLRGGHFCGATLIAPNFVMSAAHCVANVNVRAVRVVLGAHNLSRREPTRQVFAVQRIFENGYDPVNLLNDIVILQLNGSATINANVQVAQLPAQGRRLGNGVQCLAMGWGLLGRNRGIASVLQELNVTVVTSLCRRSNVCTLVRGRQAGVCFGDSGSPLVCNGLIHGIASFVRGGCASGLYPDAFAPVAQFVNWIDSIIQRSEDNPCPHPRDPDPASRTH
Assay: In vitro assay of human neutrophil elastase (HNE)
Assay type: biochemical
Conditions: 118 nM purified human neutrophil elastase, pH 8.6, 15 min incubation at 30° C., MeO-succinyl-alanyl-alanyl-prolyl-valyl-p-nitroanilide substrate; read-out: HNE IC50
Protocol: In Vitro Assays of Human Neutrophil Elastase
118 nM purified human neutrophil elastase
Suitable concentrations of compound under test diluted with water from a 10 mM stock solution in dimethylsulphoxide. Values above are final concentrations after the addition of substrate solution (see below).
The mixture above is incubated for fifteen minutes at 30° C. at which time the remaining elastase activity is measured for 10 minutes in a BioTek 340i plate-reader, after the addition of 0.6 mM MeO-succinyl-alanyl-alanyl-prolyl-valyl-p-nitroanilide. The rate of increase in absorbance at 405 nm is proportional to elastase activity. Enzyme activity is plotted against concentration of inhibitor and an IC50 determined using curve fitting software.
1. The compounds were tested in the in vitro elastase test described earlier in the description.

| Structure (SMILES) | pIC50 |
| --- | --- |
| CCC[C@H]1C(=O)N(S(C)(=O)=O)[C@H]2CCN(S(=O)(=O)c3ccc(C(=O)NCCN4CCCCC4)cc3)[C@H]12 (relative stereo) [Example 121, rel-4-(4-Methanesulfonyl-5-oxo-6R-propyl-hexahydro-(3aS,6aR)-pyrrolo[3,2-b]pyrrole-1-sulfonyl)-N-(2-piperidin-1-yl-ethyl)-benzamide hydrochloride] | 7.85 |
| CCC[C@H]1C(=O)N(S(=O)(=O)c2ccc3ccccc3c2)[C@H]2CCN(C(=O)CN3CCCCC3)[C@H]12 (relative stereo) [Example 3, rel-(3R,3aR,6aS)-1-(Naphthalene-2-sulfonyl)-4-(2-piperidin-1-yl-acetyl)-3-propyl-hexahydro-pyrrolo[3,2-b]pyrrol-2-one] | 6.69 |
| CCC[C@H]1C(=O)N(S(C)(=O)=O)[C@H]2CCN(C(=O)CCCCCN(CC)CC)[C@H]12 (relative stereo) [Example 76, rel-(3R,3aR,6aS)-4-(6-Diethylamino-hexanoyl)-1-methanesulfonyl-3-propyl-hexahydro-pyrrolo[3,2-b]pyrrol-2-one DL-tartrate] | 6.75 |
| CCC[C@H]1C(=O)N(S(C)(=O)=O)[C@H]2CCN(C(=O)CCCN(CC)CC)[C@H]12 (relative stereo) [Example 83, rel-(3R,3aR,6aS)-4-(4-Diethylamino-butyryl)-1-methanesulfonyl-3-propyl-hexahydro-pyrrolo[3,2-b]pyrrol-2-one DL-tartrate] | 6.70 |
| C=CC[C@H]1C(=O)N(S(=O)(=O)/C=C/c2ccccc2)[C@H]2CCN(C(=O)OCc3ccccc3)[C@H]12 (relative stereo) [Example 44, rel-(3aS,6R,6aR)-6-Allyl-5-oxo-4-(2-phenyl-(E)-ethenesulfonyl)-hexahydro-pyrrolo[3,2-b]pyrrole-1-carboxylic acid benzyl ester] | 7.03 |
| CCC[C@H]1C(=O)N(S(=O)(=O)c2ccccc2)[C@H]2CCN(S(=O)(=O)CCCN3CCCCC3)[C@H]12 (relative stereo) [Example 208, rel-(3R,3aR,6aS)-1-Benzenesulfonyl-4-(3-piperidin-1-yl-propane-1-sulfonyl)-3-propyl-hexahydro-pyrrolo[3,2-b]pyrrol-2-one DL-tartrate] | 7.27 |
| CCC[C@H]1C(=O)N(S(C)(=O)=O)[C@H]2CCN(C(=O)CN3CCCCC3)[C@H]12 (relative stereo) [Example 100, rel-(3R,3aR,6aS)-1-Methanesulfonyl-4-(piperidin-1-yl-acetyl)-3-propyl-hexahydro-pyrrol[3,2-b]pyrrol-2-one hydrochloride] | 6.19 |
| CCC[C@H]1C(=O)N(S(=O)(=O)c2ccc3ccccc3c2)[C@H]2CCN(S(=O)(=O)CCCN3CCOCC3)[C@H]12 (relative stereo) [Example 12, rel-(3R,3aR,6aS)-4-(3-Morpholin-4-yl-propane-1-sulfonyl)-1-(naphthalene-2-sulfonyl)-3-propyl-hexahydro-pyrrolo[3,2-b]pyrrol-2-one] | 7.22 |
| CCC[C@H]1C(=O)N(S(C)(=O)=O)[C@H]2CCN(C(=O)CN3CCCCCC3)[C@H]12 (relative stereo) [Example 104, rel-(3R,3aR,6aS)-4-Azepin-1-yl-acetyl)-1-methanesulfonyl-3-propyl-hexahydro-pyrrolo[3,2-b]pyrrol-2-one hydrochloride] | 6.24 |
| CCC[C@H]1C(=O)N(S(C)(=O)=O)[C@H]2CCN(C(=O)CN(C)c3ccccc3)[C@H]12 (relative stereo) [Example 103, rel-(3R,3aR,6aS)-1-Methanesulfonyl-4-[(methyl-phenyl-amino)-acetyl]-3-propyl-hexahydro-pyrrolo[3,2-b]pyrrol-2-one hydrochloride] | 6.98 |
| CCC[C@H]1C(=O)N(S(=O)(=O)c2cccc3cnccc23)[C@H]2CCN(S(C)(=O)=O)[C@H]12 (relative stereo) [Example 51, rel-(3R,3aR,6aS)-1-(Isoquinoline-5-sulfonyl)-4-methanesulfonyl-3-propyl-hexahydro-pyrrolo[3,2-b]pyrrol-2-one] | 7.26 |
| CCC[C@@H]1C(=O)N(S(=O)(=O)c2ccc3ccccc3c2)[C@@H]2CCN(C(=O)CCN3CCCCC3)[C@@H]12 [Example 54, (3S,3aS,6aR)-1-(Naphthalene-2-sulfonyl)-4-(3-piperidin-1-yl-propionyl)-3-propyl-hexahydro-pyrrolo[3,2-b]pyrrol-2-one hydrochloride] | 6.92 |
| CCC[C@H]1C(=O)N(S(C)(=O)=O)[C@H]2CCN(S(=O)(=O)c3ccccc3N)[C@H]12 (relative stereo) [Example 236, rel-(3R,3aR,6aS)-4-(2-Amino-benzenesulfonyl)-1-methanesulfonyl-3-propyl-hexahydro-pyrrolo[3,2-b]pyrrol-2-one] | 7.74 |
| CCC[C@H]1C(=O)N(S(C)(=O)=O)[C@H]2CCN(S(=O)(=O)c3cn(C)cn3)[C@H]12 (relative stereo) [Example 7, rel-(3R,3aR,6aS)-1-Methanesulfonyl-4-(1-methyl-1H-imidazole-4-sulfonyl)-3-propyl-hexahydro-pyrrolo[3,2-b]pyrrol-2-one] | 6.87 |
| CCC[C@H]1C(=O)N(S(C)(=O)=O)[C@H]2CCN(S(=O)(=O)c3ccccc3[N+](=O)[O-])[C@H]12 (relative stereo) [Example 226, rel-(3R,3aR,6aS)-1-Methanesulfonyl-4-(2-nitro-benzenesulfonyl)-3-propyl-hexahydro-pyrrolo[3,2-b]pyrrol-2-one] | 7.06 |
| CCC[C@H]1C(=O)N(S(=O)(=O)c2cccc3cccnc23)[C@H]2CCN(S(C)(=O)=O)[C@H]12 (relative stereo) [Example 52, rel-(3R,3aR,6aS)-4-Methanesulfonyl-3-propyl-1-(quinoline-8-sulfonyl)-hexahydro-pyrrolo[3,2-b]pyrrol-2-one] | 6.65 |
| CCC[C@H]1C(=O)N(S(=O)(=O)c2cccc3ccccc23)[C@H]2CCN(S(=O)(=O)Cc3cccc(-c4nn[nH]n4)c3)[C@H]12 (relative stereo) [Example 32, rel-(3R,3aR,6aS)-1-(Naphthalene-1-sulfonyl)-3-propyl-4-[3-(1H-tetrazol-5-yl)-phenylmethanesulfonyl]-hexahydro-pyrrol[3,2-b]pyrrol-2-one] | 6.54 |
| CCC[C@H]1C(=O)N(S(C)(=O)=O)[C@H]2CCN(C(=O)CCNC(C)=O)[C@H]12 (relative stereo) [Example 96, rel-N-[3-(4-Methanesulfonyl-5-oxo-6R-propyl-hexahydro-(3aS,6aR)-pyrrolo[3,2-b]pyrrol-1-yl)-3-oxo-propyl]-acetamide] | 6.87 |
| CCC[C@H]1C(=O)N(S(C)(=O)=O)[C@H]2CCN(C(=O)CCN3CCC3)[C@H]12 (relative stereo) [Example 97, rel-(3R,3aR,6aS)-4-(3-Azetidin-1-yl-propionyl)-1-methanesulfonyl-3-propyl-hexahydro-pyrrolo[3,2-b]pyrrol-2-one hydrochloride] | 6.69 |
| CCC[C@H]1C(=O)N(S(C)(=O)=O)[C@H]2CCN(C(=O)CCCCCCCCCN(CC)CC)[C@H]12 (relative stereo) [Example 65, rel-(3R,3aR,6aS)-4-(10-Diethylamino-decanoyl)-1-methanesulfonyl-3-propyl-hexahydro-pyrrolo[3,2-b]pyrrol-2-one DL-tartrate] | 7.18 |
| CCC[C@H]1C(=O)N(S(C)(=O)=O)[C@H]2CCN(C(=O)CNC(C)=O)[C@H]12 (relative stereo) [Example 114, rel-N-[2-(4-Methanesulfonyl-5-oxo-6R-propyl-hexahydro-(3aS,6aR)-pyrrolo[3,2-b]pyrrol-1-yl)-2-oxo-ethyl]-acetamide] | 7.38 |
| CC(C)[C@H]1C(=O)N(S(C)(=O)=O)[C@H]2CCN(C(=O)CCCC3CCN(C)CC3)[C@H]12 (relative stereo) [Example 256, rel-(3R,3aR,6aS)-3-Isopropyl-1-methanesulfonyl-4-[4-(1-methyl-piperidin-4-yl)-butyryl]-hexahydro-pyrrolo[3,2-b]pyrrol-2-one hydrochloride] | 7.11 |
| CCC[C@H]1C(=O)N(S(=O)(=O)c2ccc(C(F)(F)F)cc2)[C@H]2CCN(C(=O)CCCCCN3CCCCC3)[C@H]12 (relative stereo) [Example 202, rel-(3R,3aR,6aS)-4-(6-Piperidin-1-yl-hexanoyl)-3-propyl-1-(4-trifluoromethyl-benzenesulfonyl)-hexahydro-pyrrolo[3,2-b]pyrrol-2-one DL-tartrate] | 7.42 |
| CCC[C@H]1C(=O)N(S(C)(=O)=O)[C@H]2CCN(C(=O)c3ccncc3)[C@H]12 (relative stereo) [Example 246, rel-(3R,3aR,6aS)-1-Methanesulfonyl-3-propyl-4-(pyridine-4-carbonyl)-hexahydro-pyrrolo[3,2-b]pyrrol-2-one] | 7.68 |
| CCC[C@H]1C(=O)N(S(C)(=O)=O)[C@H]2CCN(C(=O)CCCCCCCCCN3CCCCCC3)[C@H]12 (relative stereo) [Example 66, rel-(3R,3aR,6aS)-4-(10-Azepin-1-yl-decanoyl)-1-methanesulfonyl-3-propyl-hexahydro-pyrrolo[3,2-b]pyrrol-2-one hydrochloride] | 7.47 |
| CCC[C@H]1C(=O)N(S(=O)(=O)c2ccc(Cl)cc2)[C@H]2CCN(C(=O)CCCCCN3CCCCC3)[C@H]12 (relative stereo) [Example 207, rel-(3R,3aR,6aS)-1-(4-Chloro-benzenesulfonyl)-4-(6-piperidin-1-yl-hexanoyl)-3-propyl-hexahydro-pyrrolo[3,2-b]pyrrol-2-one DL-tartrate] | 7.42 |
